Test results: patent publication US20260347364A1, “PYRAZOLO[4,3-F]QUINAZOLINE DERIVATIVES AS MODULATORS OF G12D MUTANT KRAS USEFUL FOR THE TREATMENT OF CANCER” (JAZZ PHARMACEUTICALS IRELAND LTD., priority 2023, published 2026)
pIC50: −log10 of the molar value.

Experiments:
KRAS G12D = biological target: T1, KRAS G12D (Homo sapiens, UniProt P01116, G12D); assay: HTRF nucleotide exchange assay, KRAS G12D; format: biochemical; details: class symbols; for pIC50: HTRF nucleotide exchange assay (NEA)
T1 construct: aa1-188 KRAS WT, HRAS WT, NRAS WT, or KRAS containing the G12D

KRAS WT = biological target: T2, KRAS WT (Homo sapiens, UniProt P01116); assay: HTRF nucleotide exchange assay, KRAS WT; format: biochemical; details: class symbols; for pIC50: HTRF nucleotide exchange assay (NEA)
T2 construct: aa1-188 KRAS WT

pIC50 (KRAS G12D) | pIC50 (KRAS WT) | KRAS^WT NEA (KRAS WT) | KRAS^G12D NEA (KRAS G12D) | SMILES
5.00 to 7.00 | 5.00 to 7.00 |  |  | CCc1c(F)ccc2cc(O)cc(-c3cc4nc(OCC5CCCN(C)C5)nc(N5CCCOCC5)c4c4cn(C)nc34)c12 (stereo not drawn) [Example 32, 5-ethyl-6-fluoro-4-[2-methyl-7-[(1-methyl-3-piperidyl)methoxy]-9-(1,4-oxazepan-4-yl)pyrazolo[4,3-f]quinazolin-4-yl]naphthalen-2-ol]
5.00 to 7.00 |  | D (<49% inhibition at 10 μM) |  | Cn1cc2c(n1)c(-c1cc(O)ccc1F)cc1nc(OC[C@@]34CCCN3C[C@H](F)C4)nc(N3CCCOCC3)c12 [Example 5]
≥ 8.00 | ≥ 8.00 |  |  | CCc1c(F)ccc2cc(O)cc(-c3c(F)c4nc(OCC5(CN6CC(C#N)C6)CC5)nc(N5CCOCC(C)(O)C5)c4c4cn(C)nc34)c12 (stereo not drawn) [Example 171, 1-[[1-[[4-(8-ethyl-7-fluoro-3-hydroxy-1-naphthyl)-5-fluoro-9-(6-hydroxy-6-methyl-1,4-oxazepan-4-yl)-2-methyl-pyrazolo[4,3-f]quinazolin-7-yl]oxymethyl]cyclopropyl]methyl]azetidine-3-carbonitrile]
≥ 8.00 | ≥ 8.00 |  |  | CCc1c(F)ccc2cc(O)cc(-c3c(F)c4nc(OCC5(CN(C)C)CC5)nc(N5CCOCC(C)(O)C5)c4c4cn(C)nc34)c12 (stereo not drawn) [Example 157, 4-[7-[[1-[(dimethylamino)methyl]cyclopropyl]methoxy]-4-(8-ethyl-7-fluoro-3-hydroxy-1-naphthyl)-5-fluoro-2-methyl-pyrazolo[4,3-f]quinazolin-9-yl]-6-methyl-1,4-oxazepan-6-ol]
 |  | D (<49% inhibition at 10 μM) | D (<49% inhibition at 10 μM) | Cn1cc2c(n1)c(-c1ccc(F)c3sc(N)c(C#N)c13)cc1nc(OC[C@@]34CCCN3C[C@H](F)C4)nc(N3C4CCC3CN(CCCO)C4)c12 [Example 90, 2-amino-7-fluoro-4-[7-[[(2R,8S)-2-fluoro-1,2,3,5,6,7-hexahydropyrrolizin-8-yl]methoxy]-9-[3-(3-hydroxypropyl)-3,8-diazabicyclo[3.2.1]octan-8-yl]-2-methyl-pyrazolo[4,3-f]quinazolin-4-yl]benzothiophene-3-carbonitrile]
≥ 8.00 | ≥ 8.00 |  |  | CCc1c(F)ccc2c(F)c(O)cc(-c3cc4nc(OC[C@@]56CCCN5C[C@H](F)C6)nc(N5CCCn6nc(C(=O)N(C)C)cc6C5)c4c4cn(C)nc34)c12 [Example 82, 5-[4-(8-ethyl-4,7-difluoro-3-hydroxy-1-naphthyl)-2-methyl-7-[[(2R,8S)-2-fluoro-1,2,3,5,6,7-hexahydropyrrolizin-8-yl]methoxy]pyrazolo[4,3-f]quinazolin-9-yl]-N,N-dimethyl-4,6,7,8-tetrahydropyrazolo[1,5-a][1,4]diazepine-2-carboxamide]
≥ 8.00 | ≥ 8.00 |  |  | CCc1c(F)ccc2cc(O)cc(-c3cc4nc(OC[C@@]56CCCN5C[C@H](F)C6)nc(N5CC6C(=O)NC(=O)C6C5)c4c4cn(C)nc34)c12 (stereo partly drawn) [Example 17, 5-[4-(8-ethyl-7-fluoro-3-hydroxy-1-naphthyl)-2-methyl-7-[[(2R,8S)-2-fluoro-1,2,3,5,6,7-hexahydropyrrolizin-8-yl]methoxy]pyrazolo[4,3-f]quinazolin-9-yl]-3a,4,6,6a-tetrahydropyrrolo[3,4-c]pyrrole-1,3-dione]
≥ 8.00 | 7.00 to 8.00 |  |  | Cc1cc2[nH]ncc2c(-c2cc3nc(OC[C@@]45CCCN4C[C@H](F)C5)nc(N4CCCn5nc(C(=O)N(C)C)cc5C4)c3c3cn(C)nc23)c1C1CC1 [Example 74, 5-[4-(5-cyclopropyl-6-methyl-1H-indazol-4-yl)-2-methyl-7-[[(2R,8S)-2-fluoro-1,2,3,5,6,7-hexahydropyrrolizin-8-yl]methoxy]pyrazolo[4,3-f]quinazolin-9-yl]-N,N-dimethyl-4,6,7,8-tetrahydropyrazolo[1,5-a][1,4]diazepine-2-carboxamide]
≥ 8.00 | ≥ 8.00 |  |  | CCNC(=O)c1cc2n(n1)CCCN(c1nc(OC[C@@]34CCCN3C[C@H](F)C4)nc3cc(-c4cc(O)cc5ccc(F)c(CC)c45)c4nn(C)cc4c13)C2 [Example 21, N-ethyl-5-[4-(8-ethyl-7-fluoro-3-hydroxy-1-naphthyl)-2-methyl-7-[[(2R,8S)-2-fluoro-1,2,3,5,6,7-hexahydropyrrolizin-8-yl]methoxy]pyrazolo[4,3-f]quinazolin-9-yl]-4,6,7,8-tetrahydropyrazolo[1,5-a][1,4]diazepine-2-carboxamide]
≥ 8.00 | ≥ 8.00 |  |  | CCc1c(F)ccc2cc(O)cc(-c3c(F)c4nc(OCC5(CN6CC[C@@H](O)C6)CC5)nc(N5CCOCC(C)(O)C5)c4c4cn(C)nc34)c12 (stereo partly drawn) [Example 194, 4-[4-(8-ethyl-7-fluoro-3-hydroxy-1-naphthyl)-5-fluoro-2-methyl-7-[[1-[[(3R)-3-hydroxypyrrolidin-1-yl]methyl]cyclopropyl]methoxy]pyrazolo[4,3-f]quinazolin-9-yl]-6-methyl-1,4-oxazepan-6-ol]
≥ 8.00 | ≥ 8.00 |  |  | CCc1c(F)ccc2cc(O)cc(-c3cc4nc(OC[C@@]56CCCN5C[C@H](F)C6)nc(N5CCCn6nc(C(=O)N7CCOCC7)cc6C5)c4c4cn(C)nc34)c12 [Example 24, [5-[4-(8-ethyl-7-fluoro-3-hydroxy-1-naphthyl)-2-methyl-7-[[(2R,8S)-2-fluoro-1,2,3,5,6,7-hexahydropyrrolizin-8-yl]methoxy]pyrazolo[4,3-f]quinazolin-9-yl]-4,6,7,8-tetrahydropyrazolo[1,5-a][1,4]diazepin-2-yl]-morpholino-methanone]
≥ 8.00 | ≥ 8.00 |  |  | CCc1c(F)ccc2cc(O)cc(-c3c(F)c4nc(OC[C@@H]5CCN5C)nc(N5CCOCC(C)(O)C5)c4c4cn(C)nc34)c12 (stereo partly drawn) [Example 158, 4-[4-(8-ethyl-7-fluoro-3-hydroxy-1-naphthyl)-5-fluoro-2-methyl-7-[[(2S)-1-methylazetidin-2-yl]methoxy]pyrazolo[4,3-f]quinazolin-9-yl]-6-methyl-1,4-oxazepan-6-ol]
≥ 8.00 | ≥ 8.00 |  |  | C#Cc1c(F)ccc2cc(O)cc(-c3c(C)c4nc(OC[C@@]56CCCN5C[C@H](F)C6)nc(N5CCCn6nc(C(=O)N(C)C)cc6C5)c4c4cn(C)nc34)c12 [Example 97, 5-[4-(8-ethynyl-7-fluoro-3-hydroxy-1-naphthyl)-2,5-dimethyl-7-[[(2R,8S)-2-fluoro-1,2,3,5,6,7-hexahydropyrrolizin-8-yl]methoxy]pyrazolo[4,3-f]quinazolin-9-yl]-N,N-dimethyl-4,6,7,8-tetrahydropyrazolo[1,5-a][1,4]diazepine-2-carboxamide]
≥ 8.00 | 7.00 to 8.00 |  |  | CCc1c(F)ccc2cc(O)cc(-c3cc4nc(OCC5(CN6CCCC6)CC5)nc(N5CCCn6nc(C(=O)N(C)C)cc6C5)c4c4cn(C)nc34)c12 [Example 52]
≥ 8.00 | ≥ 8.00 |  |  | CCc1c(F)ccc2cc(O)cc(-c3cc4nc(OC[C@@]56CCCN5C[C@H](F)C6)nc(N5CCCn6nc(C(=O)N(C)C)c(F)c6C5)c4c4cn(C)nc34)c12 [Example 103]
≥ 8.00 | ≥ 8.00 |  |  | CCc1c(F)ccc2cc(O)cc(-c3cc4nc(OC[C@@]56CCCN5C[C@H](F)C6)nc(N5CCCn6nc(CO)cc6C5)c4c4cn(C)nc34)c12 [Example 94, 5-ethyl-6-fluoro-4-[9-[2-(hydroxymethyl)-4,6,7,8-tetrahydropyrazolo[1,5-a][1,4]diazepin-5-yl]-2-methyl-7-[[(2R,8S)-2-fluoro-1,2,3,5,6,7-hexahydropyrrolizin-8-yl]methoxy]pyrazolo[4,3-f]quinazolin-4-yl]naphthalen-2-ol]
≥ 8.00 | ≥ 8.00 |  |  | CCc1c(F)ccc2cc(O)cc(-c3c(F)c4nc(OC[C@@]56CCCN5C[C@H](F)C6)nc(N5CCOC[C@@](C)(O)C5)c4c4cn(C)nc34)c12 [Example 109, (6S)-4-[4-(8-ethyl-7-fluoro-3-hydroxy-1-naphthyl)-5-fluoro-2-methyl-7-[[(2R,8S)-2-fluoro-1,2,3,5,6,7-hexahydropyrrolizin-8-yl]methoxy]pyrazolo[4,3-f]quinazolin-9-yl]-6-methyl-1,4-oxazepan-6-ol]
7.00 to 8.00 | 7.00 to 8.00 |  |  | CCc1c(F)ccc2cc(O)cc(-c3cc4nc(OC[C@@]56CCCN5C[C@H](F)C6)nc(N5CC6CCC(C5)C6C#N)c4c4cn(C)nc34)c12 (stereo partly drawn) [Example 210, 3-[4-(8-ethyl-7-fluoro-3-hydroxy-1-naphthyl)-7-[[(2R,8S)-2-fluoro-1,2,3,5,6,7-hexahydropyrrolizin-8-yl]methoxy]-2-methyl-pyrazolo[4,3-f]quinazolin-9-yl]-3-azabicyclo[3.2.1]octane-8-carbonitrile]
≥ 8.00 | 7.00 to 8.00 |  |  | CCc1c(F)ccc2cc(O)cc(-c3c(F)c4nc(OCC5(C#N)CCOC5)nc(N5CCCn6nc(C(=O)N(C)C)cc6C5)c4c4cn(C)nc34)c12 (stereo not drawn) [Example 207, 5-[7-[(3-cyanotetrahydrofuran-3-yl)methoxy]-4-(8-ethyl-7-fluoro-3-hydroxy-1-naphthyl)-5-fluoro-2-methyl-pyrazolo[4,3-f]quinazolin-9-yl]-N,N-dimethyl-4,6,7,8-tetrahydropyrazolo[1,5-a][1,4]diazepine-2-carboxamide]
≥ 8.00 | 7.00 to 8.00 |  |  | CCc1c(F)ccc2cc(O)cc(-c3cc4nc(OC[C@@]56CCCN5C[C@H](F)C6)nc(N5CCCn6nccc6C5)c4c4cn(C)nc34)c12 [Example 59, 5-ethyl-6-fluoro-4-[2-methyl-7-[[(2R,8S)-2-fluoro-1,2,3,5,6,7-hexahydropyrrolizin-8-yl]methoxy]-9-(4,6,7,8-tetrahydropyrazolo[1,5-a][1,4]diazepin-5-yl)pyrazolo[4,3-f]quinazolin-4-yl]naphthalen-2-ol]
7.00 to 8.00 | 7.00 to 8.00 |  |  | CCc1c(F)ccc2cc(O)cc(-c3cc4nc(OC[C@@]56CCCN5C[C@H](F)C6)nc(N5CC6CCC(C5)N6CC(C)O)c4c4cn(C)nc34)c12 (stereo partly drawn) [Example 186, 5-ethyl-6-fluoro-4-[7-[[(2R,8S)-2-fluoro-1,2,3,5,6,7-hexahydropyrrolizin-8-yl]methoxy]-9-[8-(2-hydroxypropyl)-3,8-diazabicyclo[3.2.1]octan-3-yl]-2-methyl-pyrazolo[4,3-f]quinazolin-4-yl]naphthalen-2-ol]
